We go through two compounds from patent EP2616456B1, “NUCLEAR EXPORT INHIBITORS” (Universitätsmedizin der Johannes Gutenberg-Universität Mainz, priority 2010, dated 2012).

Assay type in all cases: cell-based
For one experiment, the system named is K562 (Bcr-Abl^+). In words: Cell death, K562. Particulars: K562 (Bcr-Abl^+) (chronic myeloid leukemia, CML), 25µM.
A further experiment deals with RKO. Put plainly: Cell viability (CellTiter-Glo) and cell death, RKO. The following applies: for cell death induced by treatment: RKO (colon cancer), 25µM; for viability compared to the control: RKO, 100µM, 72h, CellTiter-Glo. As to the method:
(§1) To test the anti-cancer activity of the compounds, several cancer cell lines, currently used as models for different epithelial cancers and leukemias, were treated with the indicated inhibitors. […] Every 24h, the cell culture medium was replaced by fresh compound-containing medium. 72h post treatment, cell were analyzed by adding 100µl CellTiter-Glo® assay reagent (Promega). Luminescence was measured with a LuminoskanAscent device (ThermoScientific). Cells treated with a corresponding amount of DMSO only were use as a control. The luminescence (equals cell viability) of said control was set to 100%.
(In general: Cellular ATP, detected with luciferase, serves as a proxy for viable cell number.)

The next experiment concerns LS174T. Put plainly: Cell viability (CellTiter-Glo) and cell death, LS174T. Particulars: for cell death induced by treatment: LS174T (colon adenocarcinoma), 25µM; for viability compared to the control: LS174T, 100µM, 72h, CellTiter-Glo. As to the method: as §1
For experiment [1], the system named is RevNES-biosensor. In words: RevNES-biosensor translocation in living FaDu, MDA-MB231 and SW480 cells, fluorescence microscopy. The following applies: at Topt. As to the method: (§2) The activity of compounds C3, C5 and C24 to inhibit NES-mediated nuclear export in living cells was analyzed as described in Fetz et al., 2009 using living HeLa (cervix carcinoma), FaDu (head and neck cancer), MDA-MB231 (mammacarcinoma) and SW480 cells (colon cancer) which transiently expressed the RevNES-biosensor. The RevNES-biosensor is a fusion protein composed of (from N to C terminus) the SV40 large T-antigen nuclear localization signal (NLS), glutathion-S-transferase (GST), green fluorescent protein (GFP) and the nuclear export signal (NES) of the HIV-1 (human immunodeficiency virus) Rev protein (RevNES).
Maximum nuclear localization of fluorescence was observed after 2h (C3) and 5h (C5), respectively. Table 2: Cellular localization of green fluorescent RevNES-biosensor

Experiment [2] deals with RevNES-biosensor. Put plainly: RevNES-biosensor translocation (NES-mediated nuclear export) in living HeLa cells, fluorescence microscopy. Particulars: for Cellular localization of green fluorescent RevNES-biosensor: HeLa; for Topt at 25µM: Table 4, fluorescence microscopy; for Mode of Inhibition: reversal of export inhibition after 24h, C5: 5-12h observation. As to the method: as §2
The cells of the control were treated with a corresponding amount of DMSO only. The cellular localization of RevNES-biosensor was monitored by fluorescence microscopy. […] Maximum of cellular accumulation was observed after 1h (C24), after 2h (C3) and after 5h (C5), respectively. […] Thus, the inhibitory activity of C3 and C24 (reversible) but not of C5 (irreversible) was reversed after 24h. Table 1: Cellular localization of green fluorescent RevNES-biosensor
Table 3: Cellular localization of green fluorescent RevNES-biosensor
IC50 value corresponds to compound concentration reducing HeLa cell viability by 50%. Topt is the time point post treatment when maximum nuclear export inhibition was observed by fluorescence microscopy. Table 4: Functional characteristics of nuclear export inhibitors

In another experiment the test system is Survivin. Put plainly: Nuclear export of Survivin-GFP fusion stably expressed in A431 cells. The following applies: A431, stable expression, 25µM. The text has this:
Nuclear export of Survivin is crucial for its tumor promoting cytoprotective activity (Engels et al., 2007; Knauer et al., 2007a; Knauer et al., 2007b).

“Also recorded” adds a separate entry of the source.

`NC(=O)c1c(NC(NC(=O)c2ccccc2F)(C(F)(F)F)C(F)(F)F)sc2c1CCCC2` [Compound C3, 2-[[1,1,1,3,3,3-hexafluoro-2-[(2-fluorobenzoyl)amino]propan-2-yl]amino]-4,5,6,7-tetrahydro-1-benzothiophene-3-carboxamide]: the “cell death induced by treatment” value in the experiment on K562 (Bcr-Abl^+), in the experiment with RKO and in the experiment on LS174T was “cell death” each time. Moreover, the “viability compared to the control” value in the experiment on RKO and with LS174T was “significantly reduced viability” in each case. Further, the “Cellular localization of green fluorescent RevNES-biosensor” value (“Cellular localization” for short) with RevNES-biosensor [1] (FaDu, 25µM) was “nuclear accumulation; also recorded: nucleus”; in the experiment on RevNES-biosensor [1] (MDA-MB231, 25µM) it was “nuclear accumulation; also recorded: nucleus”; with RevNES-biosensor [1] (SW480, 25µM) it was “nuclear accumulation; also recorded: nucleus”; in the experiment on RevNES-biosensor [2] (25µM, T = 0h), “cytoplasm”; with RevNES-biosensor [2] (25µM, T = 1h) it was “nucleus/cytoplasm”; in the experiment on RevNES-biosensor [2] (25µM, T = 24h), “predominantly localized in the cytoplasm”. In addition, the “Cellular localization” value is recorded as “nuclear accumulation; also recorded: nucleus” with RevNES-biosensor [2] (25µM, at Topt); “cytoplasm” in the experiment on RevNES-biosensor [2] (75µM, T = 0h); “nucleus” in the experiment on RevNES-biosensor [2] (75µM, T = 1h); “cytoplasm” in the experiment on RevNES-biosensor [2] (150µM, T = 0h); “nucleus” in the experiment with RevNES-biosensor [2] (150µM, T = 1h). Further, the “Topt at 25µM” value with RevNES-biosensor [2] (25µM) was “∼1h”. Besides, the “Mode of Inhibition” value in the experiment with RevNES-biosensor [2] was “reversible”.

Turning to `O=C(NC1CS(=O)(=O)CC1Cl)c1cccc(C(F)(F)F)c1` (stereo not shown) [Compound C5, N-(4-chloro-1,1-dioxothiolan-3-yl)-3-(trifluoromethyl)benzamide], the “cell death induced by treatment” value in the experiment on K562 (Bcr-Abl^+), in the experiment with RKO and with LS174T was “cell death” in each case. In the experiment with Survivin, the “Localization of Survivin-GFP fusion (nuclear export of Survivin)” value is given as “nuclear accumulation”. Besides, the “viability compared to the control” value with RKO and in the experiment on LS174T was “significantly reduced viability” throughout. For the same compound, the “Cellular localization” value is reported as “nuclear accumulation; also recorded: nucleus” in the experiment on RevNES-biosensor [1] (FaDu, 25µM); “nuclear accumulation; also recorded: nucleus” in the experiment with RevNES-biosensor [1] (MDA-MB231, 25µM); “nuclear accumulation; also recorded: nucleus” with RevNES-biosensor [1] (SW480, 25µM); “cytoplasm” in the experiment with RevNES-biosensor [2] (25µM, T = 0h); “nucleus/cytoplasm” with RevNES-biosensor [2] (25µM, T = 3h); “nuclear fluorescence; also recorded: nucleus” in the experiment on RevNES-biosensor [2] (25µM, T = 24h). Besides, the “Cellular localization” value is recorded as “nuclear accumulation; also recorded: nucleus” in the experiment on RevNES-biosensor [2] (25µM, at Topt); “cytoplasm” in the experiment with RevNES-biosensor [2] (75µM, T = 0h); “nucleus” in the experiment on RevNES-biosensor [2] (75µM, T = 3h); “cytoplasm” in the experiment on RevNES-biosensor [2] (150µM, T = 0h); “nucleus” with RevNES-biosensor [2] (150µM, T = 3h). Also, the “Topt at 25µM” value in the experiment on RevNES-biosensor [2] (25µM) lay in the range of 5 to 6 h. Moreover, the “Mode of Inhibition” value with RevNES-biosensor [2] is reported as “irreversible; also recorded: irreversible*”.
